In series [1] the test system is estrogen sensitive human breast and endometrial cancer cells. The conditions noted are these: cell cycle progression in G0/G1 phase; cited from earlier work.
The test system of series [2] is endometrial, breast and lung cancer cell lines. Particulars: compared with alpha or beta-carotene; cited from earlier work.
For series [3], the system named is hot flashes in female subjects experiencing symptoms of perimenopause. Put plainly: Clinical trial of dietary supplement formulas on frequency and severity of hot flashes. The series is classed as in vivo, women. The conditions noted are these: summary of the trials. The protocol:
In a clinical trial explained below, 36 mg of HMR Lignan was used and in another example, 20 mg was initially used. In the same clinical trial, the carotenoid such as lycopene was used. The lycopene could be formed as a lycopene complex that includes at least one of phytoene, phytofluene, beta-carotene, tocopherols and phytosterols. In an example, 2 to 10 mg of lycopene was used and in another example, 4 to 8 mg of lycopene was used. In a clinical trial explained below, either 8 or 4 mg of lycopene was used and in an example, 0 mg in order to determine the efficacy of the lycopene relative to the HMR Lignan and other components. The composition also included 40 to 120 mg of Diindolymethane (DIM) or 30 to 140 mg of Diindolymethane, and in an example, 50 milligrams of DIM was used in one trial and 100 milligrams in another trial. About 40 to 80 mg of cranberry was used and in an example, 60 milligrams of cranberry was used as cranberry powder, which gave the coloring and other benefits. Cranberry is used to help relieve adverse urinary symptoms and aid and treat urinary tract infections. Other carotenoids that may possibly be used include at least one of astaxanthin, zeaxanthin, lutein, and xanthophylis.
A study was conducted to evaluate the effectiveness of a dietary supplement formulation on the reduction and severity of hot flashes in women. […]

The conditions of series [4]: cited from earlier work.
The conditions of series [5]: major metabolite of sesamin; cited from earlier work.
A further series has as its target T1, aromatase (Homo sapiens, UniProt P11511).
T1 sequence (P11511 1-503): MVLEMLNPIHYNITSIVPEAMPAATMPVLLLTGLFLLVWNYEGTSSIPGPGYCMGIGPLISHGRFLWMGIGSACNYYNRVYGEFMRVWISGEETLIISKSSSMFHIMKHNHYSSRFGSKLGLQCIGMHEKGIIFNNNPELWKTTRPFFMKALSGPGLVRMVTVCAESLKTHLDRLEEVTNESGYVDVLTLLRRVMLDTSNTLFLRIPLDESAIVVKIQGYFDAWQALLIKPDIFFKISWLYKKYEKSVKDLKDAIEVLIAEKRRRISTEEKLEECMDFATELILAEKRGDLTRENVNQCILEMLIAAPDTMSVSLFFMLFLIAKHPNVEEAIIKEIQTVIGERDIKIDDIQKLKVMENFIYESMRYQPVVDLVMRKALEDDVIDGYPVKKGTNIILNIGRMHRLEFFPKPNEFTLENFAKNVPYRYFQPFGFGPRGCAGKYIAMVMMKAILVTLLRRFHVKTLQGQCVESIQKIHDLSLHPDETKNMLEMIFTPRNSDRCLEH
The conditions noted are these: cited from earlier work.

The values that follow come from patent US10172826B2, “Composition and method to treat and alleviate symptoms of hot flashes in a subject” (U.S. NUTRACEUTICALS, LLC, priority 2015, dated 2019).

On to `CC(C)=CCC/C(C)=C/C=C/C(C)=C/C=C/C(C)=C/C=C/C=C(C)/C=C/C=C(C)/C=C/C=C(\C)CCC=C(C)C` [Lycopene], for which the “Inhibition of IGF-1 induced proliferation” value in series [1] is “inhibit”. Moreover, the “Inhibition of proliferation, relative potency” value in series [2] is recorded as “more potent that alpha or beta-carotene”. For the same compound, the “Conclusion on control of hot flashes” value in series [3] is “work alone to control hot flashes”. Moreover, in series [4], the Solubility in water result is listed as “insoluble”.

Consider `O=C1OC[C@H](Cc2cccc(O)c2)[C@H]1Cc1cccc(O)c1` [Enterolactone, enterolactone], for which the Elimination half life result in series [5] is given as “less than 6 hours”. For the same compound, the Aromatase activity entry on aromatase is “inhibit aromatase activity”.
